Reference: ChEMBL document CHEMBL1201862, “PubChem BioAssay data set” (2004)
Active and inactive are the calls of the source. Cut-off read from the data, not from the text of the source: actives have a measured IC50 and inactives only a lower limit.

Target: Envelope glycoprotein gp160 (Human immunodeficiency virus 1, UniProt Q6QLK5)
Assay: cell-free HIV fusion peptide-binding blockers – biochemical, uHTS, fluorescence dequenching, […] (AID 1986)

Sequence of Envelope glycoprotein gp160 (Q6QLK5 whole entry, the tested form may be a part): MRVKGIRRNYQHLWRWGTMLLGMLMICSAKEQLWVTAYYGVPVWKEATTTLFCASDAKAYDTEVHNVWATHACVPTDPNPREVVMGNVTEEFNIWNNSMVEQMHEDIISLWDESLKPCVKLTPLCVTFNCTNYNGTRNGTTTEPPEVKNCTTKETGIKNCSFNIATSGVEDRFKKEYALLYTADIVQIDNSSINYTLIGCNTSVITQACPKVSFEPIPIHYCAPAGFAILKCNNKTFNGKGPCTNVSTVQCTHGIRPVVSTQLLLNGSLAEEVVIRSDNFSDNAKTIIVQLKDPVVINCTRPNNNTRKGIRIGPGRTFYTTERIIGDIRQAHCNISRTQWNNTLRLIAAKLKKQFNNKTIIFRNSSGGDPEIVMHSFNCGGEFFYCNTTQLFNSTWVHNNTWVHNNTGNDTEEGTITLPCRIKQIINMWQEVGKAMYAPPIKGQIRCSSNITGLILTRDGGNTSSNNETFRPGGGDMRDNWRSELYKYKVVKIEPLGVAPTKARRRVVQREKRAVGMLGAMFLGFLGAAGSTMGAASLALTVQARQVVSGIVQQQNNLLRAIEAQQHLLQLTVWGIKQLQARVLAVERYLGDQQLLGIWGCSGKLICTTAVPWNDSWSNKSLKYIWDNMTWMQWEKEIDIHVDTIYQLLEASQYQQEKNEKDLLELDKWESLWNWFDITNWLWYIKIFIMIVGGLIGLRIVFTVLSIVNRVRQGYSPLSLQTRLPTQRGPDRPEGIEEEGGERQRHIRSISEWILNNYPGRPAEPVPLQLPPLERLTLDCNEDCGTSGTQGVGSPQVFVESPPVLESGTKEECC

**Q.** COc1ccc(O)c(C(=O)c2cc(SCC(=O)O)c3nc4sc5c(c4c(=O)n3c2)CCCC5)c1 was tested. Which IC50 did it give?
**A.** 14.2 µM (active)

**Q.** For COc1cc(/C=C2/C(=O)NN(c3ccc(C)c(Cl)c3)C2=O)cc([N+](=O)[O-])c1O, which IC50 is on record?
**A.** 30.2 µM (active)

**Q.** For O=C(CCN1C(=O)/C(=C\c2ccccc2F)SC1=S)Nc1ccc(C(=O)O)c(O)c1, which IC50 is on record?
**A.** 15.1 µM (active)

**Q.** For O=[N+]([O-])c1cc(Cl)cc(/C=N/NC(=S)Nc2ccc(S(=O)(=O)N3CCOCC3)cc2)c1O, which IC50 is on record?
**A.** 28.2 µM (active)
